Data from patent US20190202877A1, “DERMASEPTIN-TYPE AND PISCIDIN-TYPE ANTIMICROBIAL PEPTIDES” (THE REGENTS OF THE UNIVERSITY OF COLORADO, a body corporate, priority 2014, published 2019).
Converted amounts (≈) assume the structure as drawn. Like-named read-outs stand apart in the source and are kept apart here.

Assays:
[1] = tested on: methicillin resistant Staph. aureus (MRSA); assay type: cell-based, Staphylococcus aureus; details: for MIC: MH medium, 37° C., 24 h; for MIC GM, MRSA: geometric mean of MIC from 8 different isolates of MRSA
Protocol: (§1) MICs were determined by a standard microtiter dilution method in Mueller Hinton (MH) medium. Briefly, cells were grown overnight at 37° C. in MH broth and were diluted in the same medium. Serial dilutions of the peptides were added to the microtiter plates in a volume of 50 μl, followed by the addition of 50 μl of bacteria to give a final inoculum of 5×10^5 colony-forming units (CFU)/mL. The plates were incubated at 37° C. for 24 h, and the MICs were determined as the lowest peptide concentration that inhibited growth.
(§2) Various peptides of the invention were tested for antimicrobial activity as described in Example 1. The antimicrobial activity of these peptides was similarly tested against Gram-positive organisms, including Staphylococcus aureus.

[2] = tested on: methicillin sensitive Staph. aureus (MSSA); assay type: cell-based, Staphylococcus aureus; details: for MIC: MH medium, 37° C., 24 h; for MIC GM, MSSA: geometric mean of MIC from 12 different isolates of MSSA
Protocol: as §1, §2

human red blood cells = details: for Fold improvement in HC50: compared to D-Piscidin 1 or D-Dermaseptin S4, 18 hours
Protocol: Peptide samples (concentrations determined by amino acid analysis) were added to 1% human erythrocytes in phosphate-buffered saline (100 mM NaCl, 80 mM Na2HPO4, 20 mM NaH2PO4, pH 7.4) and the reaction mixtures were incubated at 37° C. for 18 h in microtiter plates. Two-fold serial dilutions of the peptide samples were carried out. This determination was made by withdrawing aliquots from the hemolysis assays and removing unlysed erythrocytes by centrifugation (800×g). Hemoglobin release was determined spectrophotometrically at 570 nm. The control for 100% hemolysis was a sample of erythrocytes treated with water or 0.1% Triton-X 100. The control for no release of hemoglobin was a sample of 1% erythrocytes without any peptide added. […] The hemolytic activity was determined as the peptide concentration that caused 50% hemolysis of erythrocytes after 18 h (HC50). HC50 as determined from a plot of percent lysis versus peptide concentration (μM). The inventors also determined the hemolytic activity after 1 hour at 37° C.

Structure (SMILES) | MIC ([1]; MRSA strain M21742 (nose)) [µM] | MIC ([1]; MRSA strain M21756 (nose)) [µM] | MIC ([1]; MRSA strain M22111 (ear)) [µM] | MIC ([1]; MRSA strain M22130) [µM] | MIC ([1]; MRSA strain M22224 (leg)) [µM] | MIC ([1]; MRSA strain M22354) [µM] | MIC ([1]; MRSA strain M22360 (labia)) [µM] | MIC ([1]; MRSA strain M22424 (arm)) [µM] | MIC GM, MRSA [1] [µM] | MIC ([2]; MSSA strain BL7429) [µM] | MIC ([2]; MSSA strain M21913) [µM] | MIC ([2]; MSSA strain M21935) [µM] | MIC ([2]; MSSA strain M21991) [µM] | MIC ([2]; MSSA strain M22075) [µM] | MIC ([2]; MSSA strain M22097) [µM] | MIC ([2]; MSSA strain M22111) [µM] | MIC ([2]; MSSA strain M22274) [µM] | MIC ([2]; MSSA strain M22287) [µM] | MIC ([2]; MSSA strain M22300) [µM] | Fold improvement in HC50 (human red blood cells) [fold] | further results
CC[C@@H](C)[C@@H](NC(=O)CNC(=O)[C@@H](CCCNC(=N)N)NC(=O)[C@@H](Cc1ccccc1)NC(=O)[C@H](NC(=O)[C@@H](Cc1c[nH]cn1)NC(=O)[C@@H](Cc1c[nH]cn1)NC(=O)[C@@H](Cc1ccccc1)NC(=O)[C@H](N)Cc1ccccc1)[C@H](C)CC)C(=O)N[C@@H](C(=O)N[C@H](Cc1c[nH]cn1)C(=O)N[C@@H](C(=O)NCC(=O)N[C@H](CCCCN)C(=O)N[C@@H](C(=O)N[C@@H](C(=O)N[C@H](Cc1c[nH]cn1)C(=O)N[C@H](CCCNC(=N)N)C(=O)N[C@H](CC(C)C)C(=O)N[C@@H](C(=O)N[C@@H](C(=O)NCC(N)=O)[C@H](C)O)C(C)C)[C@H](C)CC)[C@H](C)O)C(C)C)C(C)C [D-Piscidin 1, reference compound] | 3.0 (≈ 7.71 µg/mL) | 3.0 (≈ 7.71 µg/mL) | 3.0 (≈ 7.71 µg/mL) | 3.0 (≈ 7.71 µg/mL) | 3.0 (≈ 7.71 µg/mL) | 3.0 (≈ 7.71 µg/mL) | 1.5 (≈ 3.86 µg/mL) | 3.0 (≈ 7.71 µg/mL) | 2.8 (≈ 7.2 µg/mL) | 3.0 (≈ 7.71 µg/mL) | 3.0 (≈ 7.71 µg/mL) | 3.0 (≈ 7.71 µg/mL) | 6.1 (≈ 15.7 µg/mL) | 3.0 (≈ 7.71 µg/mL) | 6.1 (≈ 15.7 µg/mL) | 1.5 (≈ 3.86 µg/mL) | 3.0 (≈ 7.71 µg/mL) | 3.0 (≈ 7.71 µg/mL) | 3.0 (≈ 7.71 µg/mL) | 1.0 | MIC ([2]; MSSA strain M22312): 6.1 µM (≈ 15.7 µg/mL); MIC ([2]; MSSA strain M22315): 3.0 µM (≈ 7.71 µg/mL); MIC GM, MSSA [2]: 3.4 µM (≈ 8.74 µg/mL)
CC[C@@H](C)[C@@H](NC(=O)[C@H]1CCCN1C(=O)[C@@H](CCCNC(=N)N)NC(=O)[C@@H](Cc1ccccc1)NC(=O)[C@H](NC(=O)[C@@H](Cc1c[nH]cn1)NC(=O)[C@@H](Cc1c[nH]cn1)NC(=O)[C@@H](Cc1ccccc1)NC(=O)[C@H](N)Cc1ccccc1)[C@H](C)CC)C(=O)N[C@@H](C(=O)N[C@H](Cc1c[nH]cn1)C(=O)N[C@@H](C(=O)NCC(=O)N[C@H](CCCCN)C(=O)N[C@@H](C(=O)N[C@@H](C(=O)N[C@H](Cc1c[nH]cn1)C(=O)N[C@H](CCCNC(=N)N)C(=O)N[C@H](CC(C)C)C(=O)N[C@@H](C(=O)N[C@@H](C(=O)NCC(N)=O)[C@H](C)O)C(C)C)[C@H](C)CC)[C@H](C)O)C(C)C)C(C)C [D-Piscidin 1 G8P] |  |  |  |  |  |  |  |  |  |  |  |  |  |  |  |  |  |  |  |  | fold increase in hemolytic activity from 1 to 18 hours (human red blood cells; HC50 1 hour vs 18 hours at 37° C.): 7 fold
CC[C@@H](C)[C@@H](NC(=O)CNC(=O)[C@@H](CCCNC(=N)N)NC(=O)[C@@H](Cc1ccccc1)NC(=O)[C@H](NC(=O)[C@@H](Cc1c[nH]cn1)NC(=O)[C@@H](Cc1c[nH]cn1)NC(=O)[C@@H](Cc1ccccc1)NC(=O)[C@H](N)Cc1ccccc1)[C@H](C)CC)C(=O)N[C@@H](C(=O)N[C@H](Cc1c[nH]cn1)C(=O)N[C@@H](C(=O)N[C@H](CCCCN)C(=O)N[C@H](CCCCN)C(=O)N[C@@H](C(=O)N[C@@H](C(=O)N[C@H](Cc1c[nH]cn1)C(=O)N[C@H](CCCNC(=N)N)C(=O)N[C@H](CC(C)C)C(=O)N[C@@H](C(=O)N[C@@H](C(=O)NCC(N)=O)[C@H](C)O)C(C)C)[C@H](C)CC)[C@H](C)O)C(C)C)C(C)C [D-Piscidin 1 G13K] |  |  |  |  |  |  |  |  |  |  |  |  |  |  |  |  |  |  |  | 3.9 | 
CSCC[C@@H](NC(=O)[C@@H](Cc1c[nH]c2ccccc12)NC(=O)[C@@H](CC(C)C)NC(=O)[C@@H](C)N)C(=O)N[C@@H](C(=O)N[C@H](CC(C)C)C(=O)N[C@H](CC(C)C)C(=O)N[C@H](CCCCN)C(=O)N[C@H](CCCCN)C(=O)N[C@@H](C(=O)N[C@H](CC(C)C)C(=O)N[C@H](CCCCN)C(=O)N[C@H](C)C(=O)N[C@H](C)C(=O)N[C@H](C)C(=O)N[C@H](CCCCN)C(=O)N[C@H](C)C(=O)N[C@H](CC(C)C)C(=O)N[C@H](CC(N)=O)C(=O)N[C@H](C)C(=O)N[C@@H](C(=O)N[C@H](CC(C)C)C(=O)N[C@@H](C(=O)NCC(=O)N[C@H](C)C(=O)N[C@H](CC(N)=O)C(=O)N[C@H](C)C(N)=O)C(C)C)C(C)C)C(C)C)[C@H](C)O [D-Dermaseptin S4, reference compound] | 5.6 (≈ 15.6 µg/mL) | 2.8 (≈ 7.78 µg/mL) | 5.6 (≈ 15.6 µg/mL) | 5.6 (≈ 15.6 µg/mL) | 5.6 (≈ 15.6 µg/mL) | 5.6 (≈ 15.6 µg/mL) | 5.6 (≈ 15.6 µg/mL) | 11.3 (≈ 31.4 µg/mL) | 5.6 (≈ 15.6 µg/mL) | 2.8 (≈ 7.78 µg/mL) | 5.6 (≈ 15.6 µg/mL) | 5.6 (≈ 15.6 µg/mL) | 5.6 (≈ 15.6 µg/mL) | 2.8 (≈ 7.78 µg/mL) | 5.6 (≈ 15.6 µg/mL) | 5.6 (≈ 15.6 µg/mL) | 11.3 (≈ 31.4 µg/mL) | 5.6 (≈ 15.6 µg/mL) | 5.6 (≈ 15.6 µg/mL) | 1.0 | MIC ([2]; MSSA strain M22312): 11.3 µM (≈ 31.4 µg/mL); MIC ([2]; MSSA strain M22315): 11.3 µM (≈ 31.4 µg/mL); MIC GM, MSSA [2]: 6.0 µM (≈ 16.7 µg/mL)
CC[C@@H](C)[C@@H](NC(=O)[C@@H](Cc1c[nH]cn1)NC(=O)[C@@H](Cc1c[nH]cn1)NC(=O)[C@@H](Cc1ccccc1)NC(=O)[C@H](N)Cc1ccccc1)C(=O)N[C@H](Cc1ccccc1)C(=O)N[C@H](CCCNC(=N)N)C(=O)NCC(=O)N[C@H](CCCCN)C(=O)N[C@@H](C(=O)N[C@H](Cc1c[nH]cn1)C(=O)N[C@@H](C(=O)NCC(=O)N[C@H](CCCCN)C(=O)N[C@@H](C(=O)N[C@@H](C(=O)N[C@H](Cc1c[nH]cn1)C(=O)N[C@H](CCCNC(=N)N)C(=O)N[C@H](CC(C)C)C(=O)N[C@@H](C(=O)N[C@@H](C(=O)NCC(N)=O)[C@H](C)O)C(C)C)[C@H](C)CC)[C@H](C)O)C(C)C)C(C)C [D-Piscidin 1 I9K] | 96.7 (≈ 250 µg/mL) | 387 (≈ 1000 µg/mL) | 96.7 (≈ 250 µg/mL) | 12.1 (≈ 31.3 µg/mL) | 96.7 (≈ 250 µg/mL) | 773 (≈ 2000 µg/mL) | 3.0 (≈ 7.76 µg/mL) | 773 (≈ 2000 µg/mL) | 96.7 (≈ 250 µg/mL) | 193 (≈ 499 µg/mL) | 193 (≈ 499 µg/mL) | 387 (≈ 1000 µg/mL) | 193 (≈ 499 µg/mL) | 387 (≈ 1000 µg/mL) | 193 (≈ 499 µg/mL) | 3.0 (≈ 7.76 µg/mL) | 773 (≈ 2000 µg/mL) | 773 (≈ 2000 µg/mL) | 773 (≈ 2000 µg/mL) | 54 | MIC ([2]; MSSA strain M22312): 773 µM (≈ 2000 µg/mL); MIC ([2]; MSSA strain M22315): 773 µM (≈ 2000 µg/mL); MIC GM, MSSA [2]: 273 µM (≈ 706 µg/mL); % hemolysis (human red blood cells; 1000 μg/mL (387 μM) for 1 hour): 32%; activity against human red blood cells (human red blood cells; 18 hours incubation): inactive
CC[C@@H](C)[C@@H](NC(=O)CNC(=O)[C@@H](CCCNC(=N)N)NC(=O)[C@@H](Cc1ccccc1)NC(=O)[C@H](NC(=O)[C@@H](Cc1c[nH]cn1)NC(=O)[C@@H](Cc1c[nH]cn1)NC(=O)[C@@H](Cc1ccccc1)NC(=O)[C@H](N)Cc1ccccc1)[C@H](C)CC)C(=O)N[C@@H](C(=O)N[C@H](Cc1c[nH]cn1)C(=O)N[C@H](CCCCN)C(=O)NCC(=O)N[C@H](CCCCN)C(=O)N[C@@H](C(=O)N[C@@H](C(=O)N[C@H](Cc1c[nH]cn1)C(=O)N[C@H](CCCNC(=N)N)C(=O)N[C@H](CC(C)C)C(=O)N[C@@H](C(=O)N[C@@H](C(=O)NCC(N)=O)[C@H](C)O)C(C)C)[C@H](C)CC)[C@H](C)O)C(C)C [D-Piscidin 1 V12K] | 385 (≈ 1000 µg/mL) | 385 (≈ 1000 µg/mL) | 96.1 (≈ 250 µg/mL) | 96.1 (≈ 250 µg/mL) | 96.1 (≈ 250 µg/mL) | 96.1 (≈ 250 µg/mL) | 3.0 (≈ 7.8 µg/mL) | 769 (≈ 2000 µg/mL) | 114 (≈ 296 µg/mL) | 385 (≈ 1000 µg/mL) | 769 (≈ 2000 µg/mL) | 192 (≈ 499 µg/mL) | 769 (≈ 2000 µg/mL) | 385 (≈ 1000 µg/mL) | 385 (≈ 1000 µg/mL) | 6.0 (≈ 15.6 µg/mL) | 769 (≈ 2000 µg/mL) | 192 (≈ 499 µg/mL) | 24.0 (≈ 62.4 µg/mL) | 19 | MIC ([2]; MSSA strain M22312): 769 µM (≈ 2000 µg/mL); MIC ([2]; MSSA strain M22315): 192 µM (≈ 499 µg/mL); MIC GM, MSSA [2]: 229 µM (≈ 595 µg/mL)
